Results as given in patent US20240002379A1, “ASYMMETRIC CONJUGATE COMPOUNDS” (Pheon Therapeutics Ltd., priority 2016, published 2024).
Where two headings read alike, the source gives them in different places.

Key:
[1] = test system: PC3 (prostate) cell line; test: MTT cytotoxicity assay, PC3; type: cell-based; details: MTT assay, 72 hour incubation, read-out: Cytotoxicity PC3 (nM, 72 hour)
Experimental: (§1) Tumor cell lines were maintained in RPMI1640 medium supplemented with 10% heat-inactivated fetal bovine serum, 2 mM L-glutamine and 1 mM sodium pyruvate. 1800 cells per well were seeded in a volume of 180 μl in a 96-well flat bottom polystyrene plate. The cells were allowed to adhere overnight at 37° C. in a CO2 incubator. Ligands were initially formulated in DMSO, and stocks stored at −80° C. They were then further formulated at lox concentration in RPMI1640 medium. 20 ul of diluted samples were added into each treatment well. On each plate, blank wells with no cells, and untreated wells containing cells, were included. Plates were then cultured at 37° C. in a CO2 incubator for 72 hrs. Cytotoxicity was evaluated using a tetrazolium salt-based assay, the MTT assay. After 72 hours, the supernatant was removed from each well and 200 μl of a sterile filtered 500 μg/ml MTT solution in water added to each well. The plates were then incubated at 37° C. in a CO2 incubator for 4 hrs. The supernatant was then removed and the formazan crystals formed solubilized by adding 150 μl of DMSO to each well. The plate was then read on a plate reader at 540 nm, and percentage cell survival calculated as follows: ((mean absorbance treated wells at concentration x−mean absorbance blank wells)[…](mean absorbance untreated wells at concentration x−mean absorbance blank wells))×100. Data were plotted as concentration in nM vs. % cell survival in Microsoft Excel, and IC50 values (concentration where cell survival is reduced by a half) were determined from the graph.

[2] = test system: FaDu (head and neck cancer) cell line; test: MTT cytotoxicity assay, FaDu; type: cell-based; details: Homo sapiens, MTT assay, 72 hour incubation
Experimental: as §1

[3] = test system: linear double-stranded HexARev DNA fragment; test: DNA cleavage assay, HexARev fragment; type: biochemical; details: ligand concentration 10 μM and 100 nM (FIG. 16)
Experimental: The ability of a further series of compounds 13, 42, 59, 99 and the PBD dimer Talirine to cross-link DNA was determined using an assay involving a linear double-stranded HexARev fragment (FIG. 15).
The ability of 13 and of a series of compounds to cleave double-stranded DNA was investigated using a modification of the previously established DNA footprinting assay (34). Following an overnight incubation of the ligand-DNA complexes, the mixture was mixed with strand separation buffer containing 10 mM EDTA, 10 mM NaOH, 0.1% bromophenol blue, 80% formamide and incubated at 100° C. for 3 min. The mixture was then immediately cooled on ice and run on an 8% denaturing gel. […] Using the GA marker, these additional bands were identified as cleavage products produced by 13 at certain A sites of the DNA fragment.
The preparation of the TyrT DNA fragment (FIG. 8) and HexARev DNA fragment (FIG. 15) have been previously described (34). Briefly, the sequence which had been cloned into the BamHI site of pUC18 was obtained by cutting with HindIII and EcoRI. Radiolabelled DNA fragments were prepared by filling in the 3′-end of the HindIII site with [α-^32P]dATP using Klenow DNA polymerase (exo-).
The radiolabelled DNA fragment was separated from the remainder of the plasmid DNA on a 6% non-denaturing polyacrylamide gel. The gel (20 cm long, 0.3 mm thick) was run at 400 V in 1×TBE running buffer for about 1-2 h, until the bromophenol blue had run most of the way down the gel. The glass plates were separated and the position of the labelled DNA fragment was established by short (1 min) exposure to an X-ray film. The relevant band was then cut from the gel and the radiolabelled DNA eluted by adding 300 μL 10 mM Tris-HCl, pH 7.5 containing 0.1 mM EDTA and gently agitating overnight at room temperature. The eluted DNA was finally precipitated with ethanol and re-suspended in a suitable volume of 10 mM Tris-HCl, pH 7.5 containing 0.1 mM EDTA buffer so as to give at least 10 counts per second/μL on a hand-held Geiger counter. With fresh plasmid and α-^32P-dATP this process typically generated about 150 μL of radiolabelled fragment DNA. The absolute concentration of the DNA is not important, and it is typically lower than 10 nM.
Compounds such as 13 were synthesised as described above and the PBD dimer Talirine was obtained from Aurum Pharmatech LLC. Stock solution was prepared by dissolving the ligands in DMSO to give a concentration of 10 mM. From this stock solution, working solutions of the desired concentration were prepared by diluting with 10 mM Tris-HCl, pH 7.5 containing 10 mM NaCl.
Radiolabelled DNA (1.5 μL) was mixed with 1.5 μL ligand solution of various concentrations (10 μM-10 nM) and incubated overnight at 37° C.
Labelled DNA (1.5 μL) was mixed with 20 μL sterile water and 5 μL of denaturing loading solution (80% formamide containing 10 mM EDTA, 10 mM NaOH, 0.01% bromophenol blue). The sample was then incubated at 100° C. for 20 min with the micro-centrifuge tube cap open to allow evaporation.
Loading solution (4.5 μL) was added to samples from Section 2.1. The digestion products were boiled for 3 min at 100° C. and quickly cooled on ice prior to electrophoresis. Separation was performed on an 8% denaturing polyacrylamide gel (40 cm long, 0.3 mm thick) at 1500V for about 2 h until the dye reached the bottom of the gel. […]

`COc1cc2c(cc1OCCCC(=O)N1C[C@@H](CCl)c3c1cc(O)c1ccccc31)N=C[C@@H]1CCCCN1C2=O` [Compound 13, (S)-3-(4-((S)-1-(Chloromethyl)-5-hydroxy-1,2-dihydro-3H-benzo[e]indol-3-yl)-4-oxobutoxy)-2-methoxy-7,8,9,10-tetrahydrobenzo[e]-pyrido[1,2-a][1,4]diazepin-12(6aH)-one] was tested. Which IC50 [1] did it give?
Its IC50 is 1.43 nM.

And the IC50 ([2]; read-out: Cytotoxicity FaDu (nM, 72 hour))?
The IC50 was 1.17 nM.

And the “cleavage of HexARev DNA fragment” value [3]?
The value was “cleave DNA”.

Which IC50 [1] does the source give for `COc1cc2c(cc1OCc1cccc(CC(=O)N3C[C@@H](CCl)c4c3cc(O)c3ccccc43)c1)N=C[C@@H]1CCCCN1C2=O` [Compound 42, (S)-3-((3-(2-((S)-1-(Chloromethyl)-5-hydroxy-1,2-dihydro-3H-benzo[e]indol-3-yl)-2-oxoethyl)benzyl)oxy)-2-methoxy-7,8,9,10-tetrahydrobenzo[e]pyrido[1,2-a][1,4]diazepin-12(6aH)-one] here?
The IC50 was 0.03 nM.

And the IC50 ([2]; read-out: IC50 value in FaDu)?
Its IC50 is 0.01 nM.

What about the “cleavage of HexARev DNA fragment” value [3] of the same molecule?
The value was “cleave DNA”.
